Laboratory results published in article PMC11971462, “Generation and validation of a novel multitarget small molecule in glioblastoma” (Cell Death & Disease, 2025).

Test system: GNS166 cells
Assay: Label-free proteomics differential expression
Assay type: cell-based, human
Procedure: Proteomic studies were performed by the Proteomics Facility of the CIC bioGUNE by label-free relative quantification on nLC MS/MS. […] In both approaches, the top 20 enriched terms were plotted and the pathways were clustered using divisive hierarchical clustering based on pairwise Jaccard distances.

[1] = label-free proteomics, sheet DDI Prot

C#CCN(Cc1cc2cc(OCCCN3CCCCC3)ccc2n1S(=O)(=O)c1ccccc1)C(=O)CCCCCCC(=O)NO [DDI]
Direction of BIEA_HUMAN (P53004, GN=BLVRA) protein [1]: Up | Direction of CASP3_HUMAN (P42574, GN=CASP3) protein [1]: Up | Direction of COEA1_HUMAN (Q05707, GN=COL14A1) protein [1]: Up | Direction of GSH1_HUMAN (P48506, GN=GCLC) protein [1]: Up | Direction of LKHA4_HUMAN (P09960, GN=LTA4H) protein [1]: Up | Direction of NDUAC_HUMAN (Q9UI09, GN=NDUFA12) protein [1]: Up | Direction of PGPS1_HUMAN (Q32NB8, GN=PGS1) protein [1]: Up | Direction of PTSS1_HUMAN (P48651, GN=PTDSS1) protein [1]: Up | Direction of RETST_HUMAN (Q6NUM9, GN=RETSAT) protein [1]: Up | Direction of WDR47_HUMAN (O94967, GN=WDR47) protein [1]: Up | Direction of YIPF5_HUMAN (Q969M3, GN=YIPF5) protein [1]: Up | LogFC of PGPS1_HUMAN (Q32NB8, GN=PGS1) protein (label-free proteomics, sheet DDI Prot, p value 0.0469656): 1.405 | LogFC of BIEA_HUMAN (P53004, GN=BLVRA) protein (label-free proteomics, sheet DDI Prot, p value 0.0475587): 0.7997 | LogFC of GSH1_HUMAN (P48506, GN=GCLC) protein (label-free proteomics, sheet DDI Prot, p value 0.0480187): 1.55 | LogFC of WDR47_HUMAN (O94967, GN=WDR47) protein (label-free proteomics, sheet DDI Prot, p value 0.0482259): 1.18 | LogFC of LKHA4_HUMAN (P09960, GN=LTA4H) protein (label-free proteomics, sheet DDI Prot, p value 0.0482636): 0.5863 | LogFC of CASP3_HUMAN (P42574, GN=CASP3) protein (label-free proteomics, sheet DDI Prot, p value 0.0487326): 0.743 | LogFC of YIPF5_HUMAN (Q969M3, GN=YIPF5) protein (label-free proteomics, sheet DDI Prot, p value 0.049075): 0.5348 | LogFC of NDUAC_HUMAN (Q9UI09, GN=NDUFA12) protein (label-free proteomics, sheet DDI Prot, p value 0.0492119): 0.6479 | LogFC of COEA1_HUMAN (Q05707, GN=COL14A1) protein (label-free proteomics, sheet DDI Prot, p value 0.0493344): 0.8788 | LogFC of RETST_HUMAN (Q6NUM9, GN=RETSAT) protein (label-free proteomics, sheet DDI Prot, p value 0.049447): 0.7532 | LogFC of PTSS1_HUMAN (P48651, GN=PTDSS1) protein (label-free proteomics, sheet DDI Prot, p value 0.0494892): 0.7741 | Direction CNOT1_HUMAN (protein A5YKK6): Down | LogFC CNOT1_HUMAN (protein A5YKK6): -0.5343 | Direction POTEM_HUMAN (protein A6NI47): Down | LogFC POTEM_HUMAN (protein A6NI47): -1.6004 | LogFC BACH_HUMAN (protein O00154 GN=ACOT7): 0.4908 | LogFC STXB3_HUMAN (protein O00186 GN=STXBP3): -0.9203 | Direction P3C2A_HUMAN (protein O00443): Down | LogFC P3C2A_HUMAN (protein O00443): -0.6873 | LogFC SDCB1_HUMAN (protein O00560 GN=SDCBP): 2.446 | Direction DDX3X_HUMAN (protein O00571): Down | LogFC DDX3X_HUMAN (protein O00571): -0.4203 | LogFC ACOD_HUMAN (protein O00767 GN=SCD): 1.2881 | Direction ARI1A_HUMAN (protein O14497): Down | LogFC ARI1A_HUMAN (protein O14497): -1.314 | LogFC TOR1A_HUMAN (protein O14656 GN=TOR1A): -0.6936 | Direction ANM5_HUMAN (protein O14744): Down | LogFC ANM5_HUMAN (protein O14744): -0.2326 | Direction CHK1_HUMAN (protein O14757): Down | LogFC CHK1_HUMAN (protein O14757): -0.9245 | LogFC GIPC1_HUMAN (protein O14908 GN=GIPC1): 1.5016 | Direction AURKA_HUMAN (protein O14965): Down | LogFC AURKA_HUMAN (protein O14965): -3.358 | Direction DEGS1_HUMAN (protein O15121): Down | LogFC DEGS1_HUMAN (protein O15121): -0.1717 | LogFC PGRC2_HUMAN (protein O15173 GN=PGRMC2): 0.7586 | LogFC ACOX3_HUMAN (protein O15254 GN=ACOX3): 1.235 | Direction OGT1_HUMAN (protein O15294): Down | LogFC OGT1_HUMAN (protein O15294): -0.4734 | Direction TM9S1_HUMAN (protein O15321): Down | LogFC TM9S1_HUMAN (protein O15321): -2.186 | LogFC TRI18_HUMAN (protein O15344 GN=MID1): 0.3983 | Direction SHIP2_HUMAN (protein O15357): Down | LogFC SHIP2_HUMAN (protein O15357): -1.6838 | Direction FANCA_HUMAN (protein O15360): Down | LogFC FANCA_HUMAN (protein O15360): -1.214 | LogFC MOT4_HUMAN (protein O15427 GN=SLC16A3): 1.9 | Direction MRP4_HUMAN (protein O15439): Down | LogFC MRP4_HUMAN (protein O15439): -0.8149 | LogFC TPSN_HUMAN (protein O15533 GN=TAPBP): -0.5526 | LogFC PSMD3_HUMAN (protein O43242 GN=PSMD3): -0.4067 | LogFC PAPS1_HUMAN (protein O43252 GN=PAPSS1): 0.7138 | Direction VIP2_HUMAN (protein O43314): Down | LogFC VIP2_HUMAN (protein O43314): -0.766 | LogFC TIM44_HUMAN (protein O43615 GN=TIMM44): -0.5983 | Direction BUD23_HUMAN (protein O43709): Down | LogFC BUD23_HUMAN (protein O43709): -2.307 | Direction AKAP8_HUMAN (protein O43823): Down | LogFC AKAP8_HUMAN (protein O43823): -2.082 | Direction GTPB6_HUMAN (protein O43824): Down | LogFC GTPB6_HUMAN (protein O43824): -1.261 | Direction KIF1B_HUMAN (protein O60333): Down | LogFC KIF1B_HUMAN (protein O60333): -2 | LogFC NRP2_HUMAN (protein O60462 GN=NRP2): -0.6899 | LogFC OGA_HUMAN (protein O60502 GN=OGA): 0.8005 | LogFC RNBP6_HUMAN (protein O60518 GN=RANBP6): 1.52 | LogFC CPNE3_HUMAN (protein O75131 GN=CPNE3): 0.4901 | LogFC HIP1R_HUMAN (protein O75146 GN=HIP1R): 2.1312 | Direction CLU_HUMAN (protein O75153): Down | LogFC CLU_HUMAN (protein O75153): -0.6987 | Direction MPU1_HUMAN (protein O75352): Down | LogFC MPU1_HUMAN (protein O75352): -0.8716 | Direction ENTP6_HUMAN (protein O75354): Down | LogFC ENTP6_HUMAN (protein O75354): -1.463 | LogFC MTX2_HUMAN (protein O75431 GN=MTX2): -0.4239 | Direction UTP20_HUMAN (protein O75691): Down | LogFC UTP20_HUMAN (protein O75691): -1.068 | Direction DNJC8_HUMAN (protein O75937): Down | LogFC DNJC8_HUMAN (protein O75937): -0.4544 | Direction TSN9_HUMAN (protein O75954): Down | LogFC TSN9_HUMAN (protein O75954): -3.176 | LogFC SRP72_HUMAN (protein O76094 GN=SRP72): -0.4411 | LogFC IPO13_HUMAN (protein O94829 GN=IPO13): 1.054 | LogFC K0754_HUMAN (protein O94854 GN=KIAA0754): -2.89 | LogFC GLSK_HUMAN (protein O94925 GN=GLS): 1.0422 | Direction SOGA1_HUMAN (protein O94964): Down | LogFC SOGA1_HUMAN (protein O94964): -1.709 | Direction UBR5_HUMAN (protein O95071): Down | LogFC UBR5_HUMAN (protein O95071): -1.078 | LogFC GBRAP_HUMAN (protein O95166 GN=GABARAP): 0.6601 | Direction KIF4A_HUMAN (protein O95239): Down | LogFC KIF4A_HUMAN (protein O95239): -2.337 | Direction GOSR1_HUMAN (protein O95249): Down | LogFC GOSR1_HUMAN (protein O95249): -1.68 | Direction KAT7_HUMAN (protein O95251): Down | LogFC KAT7_HUMAN (protein O95251): -3.074 | Direction SMC2_HUMAN (protein O95347): Down | LogFC SMC2_HUMAN (protein O95347): -0.9053 | LogFC SYFM_HUMAN (protein O95363 GN=FARS2): -0.6412 | LogFC G6PE_HUMAN (protein O95479 GN=H6PD): -1.176 | LogFC ACSL3_HUMAN (protein O95573 GN=ACSL3): 1.019 | LogFC ASML_HUMAN (protein O95671 GN=ASMTL): 3.03 | Direction STAU1_HUMAN (protein O95793): Down
